Reference: patent publication US6982142B2, “Methods for screening therapeutically effective agents” (John Wayne Cancer Institute, priority 1997, dated 2006)
Structures can show the parent of a compound that is named as a salt.

Key:
MCF-7-AdrR cells [1] = test: Cell radiolabeling and TLC/LSC analysis of ceramide, glucosylceramide and sphingomyelin in MDR breast cancer cells; type: cell-based, human; conditions: for ceramide level, increase over control: adriamycin 2.5, PSC 833 5.0 μM, tamoxifen 5.0 μM alone or combined, 24 h, [3H]palmitic acid
Method: (§1) Cells. Experiments were conducted using the human MDR breast cancer cell line, MCF-7 AdrR (adriamycin resistant) provided by Drs. Kenneth H. Cowan and Merrill E. Goldsmith, National Cancer Institute. Cells were grown in RPMI-1640 medium containing 10% FBS (fetal bovine serum) and antibiotics as previously described (Lavie, 1997) and cultures were maintained in a humidified 6.5% CO2 atmosphere incubator. Trypsin (0.05%) and EDTA (0.5 mM) were used for subculture. Plastic tissue cultureware, was from Costar (96-well plates) and Corning (6-well plates, 6-cm dishes, T-75 flasks). Limited experiments were conducted using the human MDR epidermoid carcinoma cell line, KBV-1, provided by Dr. Michael M. Gottesman, National Cancer Institute. Cells were maintained as described (Lavie, 1996). Vinblastine was eliminated from the culture medium during the experiments.
Cell Radiolabeling and Lipid/Glycolipid Analysis. To follow lipid metabolism, cells were grown in the presence of tritiated ceramide precursors, L-[^3H]serine (20 Ci/mmol) (American Radiolabeled Chemicals, Inc., St. Louis), and [9, 10-^3H]palmitic acid (50 Ci/mmol) (DuPont NEN). Labeling media were prepared by adding microliter amounts of tritiated compounds (supplied in ethanol or sterile water) to medium containing only 5% FBS. After radiolabeling, 0.1 ml aliquots of medium were removed and analyzed by LSC (Lavie, 1997), in order to determine cellular uptake of the tritiated compounds. Cell monolayers were then rinsed twice with cold phosphate-buffered saline. Ice cold methanol containing 2% acetic acid was added, and cells were scraped free of the substratum (plastic scraper) for lipid extraction using chloroform and water in 1-dram glass vials as described (Lavie, 1997; Lavie, 1996; Bligh and Dyer, 1959). After centrifugation, the resulting organic lower phase of the biphasic extraction was withdrawn, transferred to a glass vial, and evaporated to dryness under a stream of nitrogen.
Radioactivity in glucosylceramide was analyzed by TLC resolution of total lipids (Silica Gel G) using a solvent system containing chloroform/methanol/ammonium hydroxide (80:20:2, v/v/v). Migration of glucosylceramide on TLC was compared with that of commercial standard (glucocerebrosides, Gaucher's spleen, Matreya, Inc., Pleasant Gap, Pa.), and lipid spots, after iodine vapor visualization, were scraped for tritium quantitation by LSC (Lavie, 1997; Lavie, 1996). […] Ceramide and sphingomyelin commercial standards (brain-derived) were from Avanti Polar Lipids, Alabaster, Ala. After iodine visualization of lipids, areas of the chromatogram corresponding to ceramide and sphingomyelin were scraped into minivials containing 0.5 ml water followed by 4.5 ml EcoLume (ICN, Costa Mesa, Calif.), and samples were analyzed for tritium by liquid scintillation spectrometry. Alternative analysis of ceramide consisted of subjecting an aliquot of the total cell lipid extract to mild alkaline hydrolysis (0.1 N KOH in methanol, 1 h at 37° C.) followed by re-extraction (Lavie, 1997). […] The same can also be done without tritium by simply applying 100-200 μg total cell lipid to TLC plates and developing them in the appropriate solvent, then spraying them with 30% H2SO4, charring the plate in an oven at 180° C. for 20 min, and measuring lipid mass by densitometry.

MCF-7-wt cells = test: Cytotoxicity assay (Promega) in chemosensitive wild-type breast cancer cells; type: cell-based, human; conditions: PSC 833 10 μM, four days
KB-V-1 cells [2] = test: Ceramide and sphingomyelin metabolism ([3H]palmitic acid labeling) in vinblastine resistant epidermoid carcinoma cells; type: cell-based, human; conditions: PSC 833 5.0 μM
Method: as §1
Cell Radiolabeling and Lipid/Glycolipid Analysis. To follow lipid metabolism, cells were grown in the presence of tritiated ceramide precursors, L-[^3H]serine (20 Ci/mmol) (American Radiolabeled Chemicals, Inc., St. Louis), and [9, 10-^3H]palmitic acid (50 Ci/mmol) (DuPont NEN). […] After radiolabeling, 0.1 ml aliquots of medium were removed and analyzed by LSC (Lavie, 1997), in order to determine cellular uptake of the tritiated compounds. […]
Radioactivity in glucosylceramide was analyzed by TLC resolution of total lipids (Silica Gel G) using a solvent system containing chloroform/methanol/ammonium hydroxide (80:20:2, v/v/v). Migration of glucosylceramide on TLC was compared with that of commercial standard (glucocerebrosides, Gaucher's spleen, Matreya, Inc., Pleasant Gap, Pa.), and lipid spots, after iodine vapor visualization, were scraped for tritium quantitation by LSC (Lavie, 1997; Lavie, 1996). […] After iodine visualization of lipids, areas of the chromatogram corresponding to ceramide and sphingomyelin were scraped into minivials containing 0.5 ml water followed by 4.5 ml EcoLume (ICN, Costa Mesa, Calif.), and samples were analyzed for tritium by liquid scintillation spectrometry. […]

KB-V-1 cells [3] = test: Cytotoxicity in vinblastine resistant epidermoid carcinoma cells (estimated, not measured); type: cell-based, human; conditions: PSC 833 5.0 μM, 24 h
Method: To determine whether the influence of PSC 833 on ceramide metabolism was restricted to certain cell types, a vinblastine resistant epidermoid carcinoma, KB-V-1, was tested. In KB-V-1 cells exposed to 5.0 μM PSC 833 for 24 h, cellular levels of tritiated ceramide ([^3H]palmitic acid labeling) increased 8.7-fold over untreated cells. This is 4-fold higher than the ceramide increase elicited by PSC 833 in MCF-7-AdrR cells (FIG. 7). The increase in ceramide in KB-V-1 cells was accompanied by cytotoxicity, which while not measured was estimated at 80% cell death. Additionally, the PSC 833-induced increase in [^3H]ceramide was not accompanied by decreases in [^3H]sphingomyelin, but rather a slight increase in radiolabeled sphingomyelin (33% over the control).

MCF-7-AdrR cells [4] = system: MCF-7-AdrR cells
MCF-7 wild-type cells [5] = test: Ceramide and sphingomyelin formation ([3H]palmitic acid, TLC) in wild-type breast cancer cells; type: cell-based, human; conditions: doxorubicin 1.7 μM
Method: (§2) The effect of anthracyclines such as doxorubicin on ceramide formation is illustrated in FIG. 10A. Cells were seeded in 6-well plates (80,000 cells/well) in 2.0 ml medium containing 5% FBS. After 2 days of growth, cells were given doxorubicin (1.7 μM) and [^3H]palmitic acid (2.0 μCi/well) for 72 hr. Total cell lipids were extracted (Bligh and Dyer, 1959) and analyzed by applying 150,000 cpm (for ceramide analysis) and 50,000 cpm (for sphingomyelin analysis) from each sample to the origin of a Silica Gel G TLC plate and resolving [^3H]ceramide and [^3H]sphingomyelin as described in the Methods section. […] FIG. 10A illustrates that exposure of wild-type human breast cancer cells to doxorubicin (1.7 μM) caused, after 72 hours, a 6-fold increase in ceramide. […] Control and doxorubicin treated (1.7 μM) cells were grown in 10 cm culture dishes for 72 hr. Cells were harvested by trypsin-EDTA, centrifuged then incubated with digestion buffer (100 mM NaCl, 25 mM EDTA, 10 mM Tris-HCI, 0.5% SDS, 0.3 mg/ml Proteinase K, pH 8.0) at 45° C. for 18 hrs. DNA was extracted with phenol/chloroform/isoamyl alcohol (25:24:1, v/v/v) and precipitated in 1/3 volume 7.5 M ammonium acetate and 2 volume2 100% ethanol at −20° C. overnight. […] Re-extracted DNA (15 μg) was analyzed by electrophoresis on a 2% agarose gel in TAE buffer (40 mM Tris-acetate, 1.0 mM EDTA, pH 8.3). […]

MCF-7 wild-type cells [6] = test: Apoptosis by oligonucleosomal DNA fragmentation (gel electrophoresis) in wild-type cells; type: cell-based, human; conditions: doxorubicin 1.7 μM, 72 hr
Method: as §2

MCF-7 cells [7] = test: cells; type: cell-based; conditions: Homo sapiens, MCF7, 96 h, read-out: EC50 (cytotoxicity)
Method: Cytotoxicity Assay. The assay was performed as previously described (Lavie, 1997). […] Cultures were incubated at 37° C. for 24 hr before addition of drug. Drugs were added in FBS-free medium (0.1 ml), and cells were cultured at 37° C. for the indicated periods. Drug cytotoxicity was determined using the Promega 96 Aqueous cell proliferation assay kit. Absorbance at 490 nm was recorded using an ELISA reader (Molecular Devices, San Diego, Calif.).
Adriamycin was used to assess the influence of GCS transfection on cellular response to anthracyclines. After pretreatment with doxycycline for two days, MCF-7/GCS cells were incubated with increasing concentrations of adriamycin for four days. […] It was observed that MCF-7/GCS cells were resistant to ceramide toxicity as well. […] However, the EC50 in the TC group was nearly identical with that of MCF-7 cells, there being no statistical difference between the two groups (FIG. 14C).

MCF-7 cells [8] = test: Analysis of ceramide and glucosylceramide ([3H]palmitic acid, TLC) in parental cells; type: cell-based, human; conditions: adriamycin
Method: (§3) Analysis of Ceramide and Glucosylceramide. Analyses were performed as previously described (Lavie, 1997). Cellular lipids were radiolabeled by incubating cells with [^3H]palmitic acid (2.5 μCi/ml culture medium) for 24 hr. After removal of medium, cells were rinsed twice with PBS (pH 7.4), and lipids were extracted (Lavie, 1997). After nitrogen evaporation of solvents, total lipids were resuspended in 100 μl of chloroform /methanol (1:1, v/v), and aliquots were applied to TLC plates. Ceramide was resolved using solvent system I, which contained chloroform/acetic acid (90:10, v/v). […] Commercial lipid standards were co-chromatographed. After development, lipids were visualized by iodine vapor staining, and areas of interest were scraped into 0.5 ml water. EcoLume counting fluid (4.5 ml) was added, the samples were mixed, and radioactivity was quantitated by liquid scintillation spectrometry.
(§4) To further define the mechanism of drug resistance in MCF-7/GCS cells, cells were challenged with adriamycin and the metabolism of ceramide was evaluated (FIGS. 16A-16B). […] After 24 and 48 hr with adriamycin, GC levels in the GCS-transfected cells increased 1.4- and 2.1-fold, respectively.

MCF-7/GCS cells = test: Analysis of ceramide and glucosylceramide ([3H]palmitic acid, TLC) in GCS-transfected cells; type: cell-based, human; conditions: adriamycin
Method: as §3, §4

MCF-7-AdrR cells [9] = test: cells; conditions: Homo sapiens, 72 h, read-out: growth inhibition
[10] = increasing concentration, 60 min then [3H]palmitic acid for 23 h

Compound: C/C=C/C[C@@H](C)C(=O)[C@H]1C(=O)N[C@@H](C(C)C)C(=O)N(C)CC(=O)N(C)[C@@H](CC(C)C)C(=O)N[C@@H](C(C)C)C(=O)N(C)[C@@H](CC(C)C)C(=O)N[C@@H](C)C(=O)N[C@H](C)C(=O)N(C)[C@@H](CC(C)C)C(=O)N(C)[C@@H](CC(C)C)C(=O)N(C)[C@@H](C(C)C)C(=O)N1C [PSC 833, ([3′-Keto-Bmt1]-Val2)-cyclosporine]
- concentration at which activation of glucosylceramide formation was apparent (MCF-7-AdrR cells [1]; 60 min then [3H]palmitic acid for 23 h): 0.1 µM
- glucosylceramide level (TLC autoradiography) (MCF-7-AdrR cells [1]; PSC 833 2.5 μM, overnight, [3H]serine): increased markedly
- sphingomyelin, % of control (MCF-7-AdrR cells [1]; PSC 833 5.0 μM, 2 h): 150 % of control
- time at which activation of cellular ceramide formation was discernible (MCF-7-AdrR cells [1]; PSC 833 5.0 μM, exposure 15 min-4 h): 30 min
- ceramide level, increase over control (MCF-7-AdrR cells [1]): 4.8 fold
- cellular ceramide formation, dose-response (MCF-7-AdrR cells [1]; [10]): elicited an increase in cellular ceramide formation
- glucosylceramide formation, dose-response (MCF-7-AdrR cells [1]; [10]): resulted in glucosylceramide synthesis
- reduction in cell survival (MCF-7-wt cells): 80%
- ceramide increase in KB-V-1 relative to increase in MCF-7-AdrR cells (KB-V-1 cells [2]): 4 fold
- radiolabeled sphingomyelin, increase over the control (KB-V-1 cells [2]; 24 h): 33%
- tritiated ceramide level, increase over untreated cells (KB-V-1 cells [2]; 24 h): 8.7 fold
- cell death (not measured, estimated) (KB-V-1 cells [3]): ~80%
- cell kill (MCF-7-AdrR cells [4]; PSC 833 0.5 μM, 5-days): 10%
- reduction in cell survival (MCF-7-AdrR cells [4]; PSC 833 10 μM, four days): 35%
- cell viability (MCF-7-AdrR cells [4]; adriamycin 2.5 μM, PSC 833 5.0, tamoxifen 5.0 μM alone or combined, 3-days): without influence

Compound: COc1cccc2c1C(=O)c1c(O)c3c(c(O)c1C2=O)C[C@@](O)(C(=O)CO)C[C@@H]3O[C@H]1C[C@H](N)[C@H](O)[C@H](C)O1 [adriamycin, doxorubicin hydrochloride]
- ceramide level, increase over control (MCF-7-AdrR cells [1]): not influenced
- ceramide increase (MCF-7 wild-type cells [5]; 72 hours): 6 fold
- sphingomyelin production (MCF-7 wild-type cells [5]; 72 hr): increased only slightly
- apoptosis (DNA laddering) (MCF-7 wild-type cells [6]): gave rise to apoptosis
- EC50 (MCF-7 cells [7]): 0.37 ± 0.01 µM
- GC levels (MCF-7 cells [8]; 24 and 48 hr): little impact
- ceramide level increase (MCF-7 cells [8]; 24 hr): 3.4 fold
- ceramide level increase (MCF-7 cells [8]; 48 hr): 3 fold
- GC level increase (MCF-7/GCS cells; 24 hr): 1.4 fold
- ceramide level increase (MCF-7/GCS cells; 24 hr): 1.4 fold
- GC level increase (MCF-7/GCS cells; 48 hr): 2.1 fold
- ceramide level increase (MCF-7/GCS cells; 48 hr): 1.2 fold
- cell survival (MCF-7-AdrR cells [4]; adriamycin 0.2 μM alone, 5-days): 90%
- cell survival, % of control (MCF-7-AdrR cells [4]; adriamycin 0.1-1.0 μM, 5-days): 80-95 % of control
- inhibition at 2.5 µM (MCF-7-AdrR cells [9]): 23%
